Results: ChEMBL document CHEMBL1201862, “PubChem BioAssay data set” (2004)
Active and inactive are the calls of the source.

Assays:
[1] = growth suppression of beta-catenin-knockout colon cells, dose response, cell-based, HCT116, human colon tumor (AID 1045); type: functional;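 note: HCT116 colon tumor cells with beta catenin knocked out; cells exposed to compound for 60 hours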
[2] = growth suppression of PTEN-null colon cells, dose response, cell-based, HCT116 PTEN knockout (AID 1047); type: functional;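 note: HCT116 colon tumor cells with PTEN knocked out; cells exposed to compound for 60 hours before readout; potency for loss of cell viability measured by luminescence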
[3] = HEp-2 cell cytotoxicity, dose response, cytotoxicity control for RSV inhibitor project, HTS (AID 2410); type: functional; conditions: human respiratory syncytial virus
[4] = Luminescence Cell-Based Dose Retest to Confirm Inhibitors of Cancer Stem Cells. [Related pubchem assays (depositor defined):AID2717, AID2721]; type: functional; conditions: Homo sapiens
[5] = system: Streptococcus sp. 'group A'; experiment: growth inhibition of control SK(-) GAS strain, dose response, counter-screen for streptokinase expression inhibitor project, luminescence, kanamycin, BacTiterGlo, confirmation (AID 1900); type: functional, organism-based
Streptokinase A = biological target: T1, Streptokinase A (Streptococcus pyogenes serotype M1, UniProt P10520); experiment: S. pyogenes streptokinase expression inhibitors, potency, dose response, plasminogen activation absorbance, OD405 (AID 1914); type: functional, Streptococcus pyogenes M1 GAS;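 note: secreted streptokinase activity via plasminogen activation per viability signal from cell pellet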
T1 sequence (P10520 whole entry): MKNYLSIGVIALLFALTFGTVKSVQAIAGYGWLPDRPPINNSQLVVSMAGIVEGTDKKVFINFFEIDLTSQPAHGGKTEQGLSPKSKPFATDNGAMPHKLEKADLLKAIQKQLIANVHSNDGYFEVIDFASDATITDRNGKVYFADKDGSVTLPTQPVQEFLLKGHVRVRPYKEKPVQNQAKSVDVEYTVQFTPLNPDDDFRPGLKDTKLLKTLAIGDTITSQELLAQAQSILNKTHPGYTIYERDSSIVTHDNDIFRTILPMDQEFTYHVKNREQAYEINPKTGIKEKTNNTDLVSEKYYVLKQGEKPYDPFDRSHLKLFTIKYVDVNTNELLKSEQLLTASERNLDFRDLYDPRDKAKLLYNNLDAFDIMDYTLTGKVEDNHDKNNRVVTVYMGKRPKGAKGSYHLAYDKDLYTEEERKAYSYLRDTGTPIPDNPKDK

Streptococcus = experiment: Group A Streptococcus viability loss, dose response, counter-screen for streptokinase expression inhibitor project, luminescence, BacTiterGlo (AID 1915); type: functional, organism-based;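 note: potency for reduction of bacterial viability or growth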
[6] = biological target: T2, Rac GTPase-activating protein 1 (Homo sapiens, UniProt Q9H0H5); experiment: MgcRacGAP GTPase-activating activity inhibitors, confirmation, biochemical, ADP Hunter fluorescence, primary and confirmatory (AID 624330); type: functional
T2 sequence (Q9H0H5 whole entry): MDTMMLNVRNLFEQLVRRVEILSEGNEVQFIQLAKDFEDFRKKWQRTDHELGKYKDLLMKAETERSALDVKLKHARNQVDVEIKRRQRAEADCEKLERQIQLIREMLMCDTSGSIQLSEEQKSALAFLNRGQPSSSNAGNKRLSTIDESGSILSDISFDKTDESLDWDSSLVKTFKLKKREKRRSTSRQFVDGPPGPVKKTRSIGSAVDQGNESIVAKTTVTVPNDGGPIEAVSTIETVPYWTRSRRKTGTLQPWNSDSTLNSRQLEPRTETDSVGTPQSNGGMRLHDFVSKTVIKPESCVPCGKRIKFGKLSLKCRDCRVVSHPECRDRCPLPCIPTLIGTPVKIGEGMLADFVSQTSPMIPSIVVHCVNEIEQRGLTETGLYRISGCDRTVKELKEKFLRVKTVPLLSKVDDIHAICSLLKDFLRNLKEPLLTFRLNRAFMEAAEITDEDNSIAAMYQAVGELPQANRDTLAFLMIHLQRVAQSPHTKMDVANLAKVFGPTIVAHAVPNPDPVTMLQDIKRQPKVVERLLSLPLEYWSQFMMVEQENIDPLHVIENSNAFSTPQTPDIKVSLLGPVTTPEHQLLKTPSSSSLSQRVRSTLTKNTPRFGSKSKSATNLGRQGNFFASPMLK

Paired box protein Pax-8 = Paired box protein Pax-8 (Homo sapiens, UniProt Q06710); experiment: inhibitors of PAX8-driven TPO luciferase reporter, dose response, RMG-I cells, cherry-pick (AID 687027); type: functional, cell-based;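 note: luciferase reporter driven by Pax8 target thyroperoxidase promoter measured by SteadyGlo luminescence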
[7] = inhibitors of intracellular T. cruzi replication, confirmation, NIH3T3 host cells, beta-gal luminescence (AID 2044); type: functional, cell-based;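 note: intracellular parasites grown in NIH/3T3 mouse fibroblasts as host cells; luminescent beta-galactosidase reporter signal from transgenic T. cruzi replicating inside host cells; inhibitors lower the luminescence signal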
[8] = cytotoxicity toward NIH3T3 fibroblasts, dose response, counter-screen, cell-based, ATP luminescence, mouse fibroblasts (AID 2010); type: functional;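 note: cells exposed to compound for about 90 hours before reading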
[9] = HepG2 cell cytotoxicity, dose response, cytotoxicity control for Shn3 inhibitor project, CellTiter-Glo, cherry-picked (AID 624134); type: functional, cell-based
[10] = Shn3 3'UTR reporter inhibitors, dose response, cell-based, Clone20 osteoblasts, firefly luciferase, cherry-picked (AID 624132); type: functional;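 note: firefly luciferase luminescence from reporter carrying the Shn3 3'UTR in osteoblasts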
[11] = control 3'UTR Renilla luciferase suppression, dose response, counter-screen for Shn3 inhibitor project, cell-based, Clone20-Shn3RL, cherry-picked (AID 624133); type: functional

Paired box protein Pax-8, sequence (Q06710 whole entry): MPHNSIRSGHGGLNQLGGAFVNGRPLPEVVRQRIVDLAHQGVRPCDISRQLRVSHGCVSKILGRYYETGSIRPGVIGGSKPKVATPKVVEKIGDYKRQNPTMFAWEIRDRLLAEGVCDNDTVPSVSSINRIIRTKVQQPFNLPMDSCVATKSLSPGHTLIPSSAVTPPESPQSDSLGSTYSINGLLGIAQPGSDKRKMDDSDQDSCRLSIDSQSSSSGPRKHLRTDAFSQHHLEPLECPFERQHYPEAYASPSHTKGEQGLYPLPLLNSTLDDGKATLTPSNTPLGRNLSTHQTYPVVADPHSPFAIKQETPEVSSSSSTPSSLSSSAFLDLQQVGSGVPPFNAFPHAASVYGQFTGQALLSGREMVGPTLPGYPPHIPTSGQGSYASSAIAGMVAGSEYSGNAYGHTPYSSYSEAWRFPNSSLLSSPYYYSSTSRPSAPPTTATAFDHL

CC1CN(c2nc(-c3ccc(Br)cc3)nnc2-c2ccccc2)CC(C)N1 (stereo not drawn)
EC50 [1]: 10 µM (active)
EC50 [2]: 11.3 µM (active)

COc1cc(OC)c(NC(=O)C2CCN(S(=O)(=O)c3ccc4c(c3)CC(C)N4C(C)=O)CC2)cc1Cl (stereo not drawn)
CC50 [3]: > 50 µM (active)

CCc1cc2cccc(C)c2nc1SCC(=O)c1ccc(NC(C)=O)cc1
AC50 [4]: 2.94 µM (active)

CC(C)CCOc1ccc(-c2c(=O)n(OCc3ccc([N+](=O)[O-])cc3)c3ccccc3[n+]2[O-])cc1
EC50 [1]: 28.3 µM (active)
EC50 [2]: 20.7 µM (active)

COc1ccc(-n2c(O)cc(=O)nc2SCC(=O)Nc2ccccc2)cc1
EC50 [5]: 67.3 µM (active)
EC50 (Streptokinase A): > 150 µM (not active)
EC50 (Streptococcus): > 150 µM (not active)

CCc1sc(C(=O)Nc2nccs2)cc1C
EC50 [5]: > 150 µM (not active)
EC50 (Streptokinase A): > 150 µM (not active)
EC50 (Streptococcus): > 150 µM (not active)

c1ccc(CNc2ccc(N3CCOCC3)cc2)cc1
IC50 [6]: 8.18 µM (active)

C=C(C)COc1ccc(-c2nc(N)ncc2Oc2ccc(OC)cc2)c(O)c1
EC50 [5]: 47.6 µM (active)
EC50 (Streptokinase A): > 150 µM (not active)
EC50 (Streptococcus): > 150 µM (not active)

O=C1[C@@H]2Cc3c([nH]c4ccccc34)C(c3cccc(Br)c3)N2C(=O)CN1C1CCN(Cc2ccccc2)CC1 (stereo partly drawn)
AC50 (Paired box protein Pax-8): 12.1 µM (active)
EC50 [7]: 1.32 µM (active)
AC50 [4]: 6.9 µM (active)
EC50 [8]: 9.95 µM (active)

N#C/C(=C\c1ccc(OCc2ccccc2)cc1)C(=O)Nc1nc2c(s1)CCN(Cc1ccccc1)C2
CC50 [3]: 28.8 µM (active)

Cc1ccc(CN2CCN(CC3CC4C=CC3C4)CC2)cc1 (stereo not drawn)
IC50 [6]: 113 µM (active)

COc1cc(OC)cc(C(=O)Nc2cccc(-c3ccc(N4CCOCC4)nn3)c2)c1
EC50 [5]: > 150 µM (not active)
EC50 (Streptokinase A): > 150 µM (not active)
EC50 (Streptococcus): > 150 µM (not active)

Cc1cc2cc(CN(CC3CCCO3)C(S)=Nc3ccccc3)c(O)nc2cc1C (stereo not drawn)
AC50 [9]: 48.9 µM (active)
EC50 [1]: 5.3 µM (active)
EC50 [2]: 4.38 µM (active)
AC50 [10]: 2.91 µM (active)
AC50 [11]: 9.59 µM (active)

COc1cccc(CC(=O)OCC(=O)Nc2nnc(-c3ccccc3)o2)c1
EC50 [5]: 7.82 µM (active)
EC50 (Streptokinase A): > 150 µM (not active)
EC50 (Streptococcus): > 150 µM (not active)
